Test results published in patent US20100069319A1, “Mercaptopurine derivatives and uses thereof” (priority 2007, published 2010).
Read-outs that look alike come from different tables or passages of the source. One block for each compound: values may come before it.

Tests used:
Hela = experiment: Anti-proliferative concentration IC50 (Table 2); assay type: cell-based, human; details: 16 h, tested at 0-200 μM, read-out: Anti-proferative concentration - IC50 (mean ± SE)
Method: (§1) Cell proliferation was determined by the XTT viability assay in 96-well plates, based on the reduction of tetrazolium salt to soluble formazan compounds by living cells. Cells (10,000-15,000 cells/well) were seeded in a 96-well plate. After 16 h incubation with various concentrations of 6-MP, 6-MPR and their S-allylthio-derivatives, 50 μl of XTT/PMS mixture (50 μM PMS, 0.1% XTT in medium) was added onto the cells. After an incubation period of 3-4 h at 37° C. the absorbance of the samples was measured in an ELISA Reader at 450 nm. SDS (1%, 10 μl/well) was added to reference wells before adding the XTT/PMS solution.
(§2) The results of viability and proliferation were expressed as mean values±SD (n=3-6). For each cell line, the results were analyzed using two-way analysis of variance (ANOVA) followed by Bonferroni's posttest for the factors of the drugs used and their various concentrations, considering p<0.05 as significant. IC50 values (mean±SEM) were obtained from the linear range of the viability curve versus drug concentration (XTT assay).
(§3) In particular, cell in suspension, namely, Daudi, HL-60, U937, Molt-4, Jurkat and B-CLL, were tested at prodrug concentration of 0-100 μM, and monolayer cells, namely, Hela HtTA-1, MDR HT-29 and N87, were tested at prodrug concentration of 0-200 μM. in both cases, cell viability was determined by trypan blue dye exclusion assay. Data are presented in Table 2 hereinbelow for 6MP derivatives-treated for 16 h.

MDR HT-29 = experiment: Anti-proliferative concentration IC50 (Table 2); assay type: cell-based, human; details: MDR HT-29, 16 h, tested at 0-200 μM, read-out: Anti-proferative concentration - IC50 (mean ± SE)
Method: as §1, §2, §3

N87 = experiment: Anti-proliferative concentration IC50 (Table 2); assay type: cell-based, human; details: N87, 16 h, tested at 0-200 μM, read-out: Anti-proferative concentration - IC50 (mean ± SE)
Method: as §1, §2, §3

HL-60 = experiment: Anti-proliferative concentration IC50 (Table 2); assay type: cell-based, human; details: HL-60, 16 h, tested at 0-100 μM, read-out: Anti-proferative concentration - IC50 (mean ± SE)
Method: as §1, §2, §3

U937 = experiment: Anti-proliferative concentration IC50 (Table 2); assay type: cell-based, human; details: U937, 16 h, tested at 0-100 μM, read-out: Anti-proferative concentration - IC50 (mean ± SE)
Method: as §1, §2, §3

B-CLL cells = details: 48 h, read-out: calculated IC50 for allicin induced-apoptosis; cited from earlier work
Daudi = experiment: Anti-proliferative concentration IC50 (Table 2); assay type: cell-based; details: 16 h, tested at 0-100 μM, read-out: Anti-proferative concentration - IC50 (mean ± SE)
Method: as §1, §2, §3

Jurkat = experiment: Anti-proliferative concentration IC50 (Table 2); assay type: cell-based, human; details: 16 h, tested at 0-100 μM, read-out: Anti-proferative concentration - IC50 (mean ± SE)
Method: as §1, §2, §3

Molt-4 = experiment: Anti-proliferative concentration IC50 (Table 2); assay type: cell-based; details: Molt-4, 16 h, tested at 0-100 μM, read-out: Anti-proferative concentration - IC50 (mean ± SE)
Method: as §1, §2, §3

Daudi cells = experiment: XTT cell proliferation assay; assay type: cell-based; details: 16 h
Method: as §1
(§4) The inhibitory effects of the various prodrugs on Daudi leukemia cell and on monolayer N87 cells were compared. […] XTT was added to the wells for 3 h at 37° C. Cell viability was monitored using an ELISA reader at 450 nm, as described in Materials and Methods.

N87 cells = experiment: XTT cell proliferation assay; assay type: cell-based, human; details: 16 h
Method: as §1, §4

[1] = test system: human peripheral blood mononuclear cells (PBMCs); details: after 4 days of treatment, read-out: IC50, T-cell mitogen-induced blastogenesis; cited from earlier work

IC50 (Hela; Homo sapiens): 104 ± 10.2 µM
IC50 (MDR HT-29; Homo sapiens): 83.8 ± 7.8 µM
IC50 (HL-60; Homo sapiens): 5.5 ± 0.6 µM
IC50 (U937; Homo sapiens, U-937): 19.7 ± 2.1 µM
IC50 (Daudi; Homo sapiens): 35.3 ± 4.2 µM
SMILES: C=CCS[S+]([O-])CC=C (stereo not drawn) [Allicin, reference compound]
IC50 (N87; Homo sapiens): 16.8 ± 3.3 µM
IC50 (B-CLL cells): 0.02 µM

IC50 (Hela): > 200 µM
IC50 (MDR HT-29): > 200 µM
IC50 (HL-60): 86.1 ± 9.5 µM
IC50 (U937): 113 ± 10.9 µM
IC50 (Jurkat): 69.1 ± 7.5 µM
IC50 (Molt-4): 16.9 ± 2.3 µM
IC50 (Daudi): 70.8 ± 7.8 µM
SMILES: C=CCSSc1ncnc2c1ncn2[C@@H]1O[C@H](CO)[C@@H](O)[C@H]1O [SA-6MPR, S-allylthio-6-mercaptopurine 9-riboside]
IC50 (N87): 120 ± 15.6 µM
residual proliferation (Daudi cells; 50 μM): 60%
residual proliferation (Daudi cells; 100 μM): 25%
residual proliferation / viability (N87 cells; N87, 50 μM): about 70%
residual viability (N87 cells; N87, 100 μM): ~55%
proliferation (N87 cells; N87, 150 μM): complete loss of proliferation

SMILES: Cn1cnc([N+](=O)[O-])c1Sc1ncnc2nc[nH]c12 [AZ, azathioprine]
IC50 [1]: 0.23 ± 0.231 µM

IC50 (U937; Homo sapiens, U-937): > 200 µM
IC50 (Jurkat; Homo sapiens): 99 ± 11.9 µM
IC50 (Molt-4; Homo sapiens): 24.8 ± 2.5 µM
SMILES: OC[C@H]1O[C@@H](n2cnc3c(S)ncnc32)[C@H](O)[C@@H]1O [6-MPR, 6-mercaptopurine riboside, reference compound]
cell proliferation (Daudi cells; 0-100 μM): no significant loss of cell proliferation
cell proliferation (N87 cells; N87, 0-100 μM): no significant loss of cell proliferation
proliferation (residual) (N87 cells; N87, 150 μM): ~75%
